Target: T1, iRFP713 (Rhodopseudomonas palustris, UniProt G1FNL7, C15S)
T1 construct: gene iRFP; N-terminal polyhistidine tag; E. coli LMG194 with heme oxygenase; dimer
Assay: zinc-staining SDS-PAGE, absorption/fluorescence spectra, GdnHCl unfolding
Details: noncovalent; GAF pocket; no BV-binding Cys

For `C=CC1=C(C)C(=Cc2[nH]c(C=C3N=C(C=C4NC(=O)C(C)=C4C=C)C(C)=C3CCC(=O)O)c(CCC(=O)O)c2C)NC1=O` [biliverdin IXα], the “zinc-staining SDS-PAGE, absorption/fluorescence spectra, GdnHCl unfolding” value was “BV was the most weakly associated with NIR FP variants having no Cys residues”.
